# How the values were obtained:
# Format in all cases: cell-based, human
# [1] = test system: SMAD-7, LOX, MMP1, LGALS3, UCHL1, HSP90B1, MMP14, PPAR-λ(gamma); assay: Gene expression time course after TGF-β exposure, Example 10; settings: 10 ng/ml, no DEX
# Description: (§1) A 24-well plate, all-human cell-based triculture system (hTCS) that includes cryopreserved primary human feeder cells (FCs) and primary human hepatocytes (PHHs) and KC were used. The ratios of hepocytes: KC of 1:4 and 1:2 were used. The cells were exposed to TGF-β (10 ng/ml), with NO DEX in the media. During exposure, the above genes were followed. The workflow was the same as described in Example 9.
# The cells were exposed to 10 ng/ml TGF-β.
# (§2) Exposure times were measured at 2, 6, 24, and 96 hours. The gene expressions SMAD-7, LOX, MMP1, LGALS3, UCHL1, HSP90B1, MMP14, PPAR-λ(gamma)) and two housekeeping genes; β-Actin (duplexed) and GAPDH were measured. Cell Health was evaluated by measuring lactate dehydrogenase (LDH), and urea production at all time points.
# [2] = test system: genes known to have a role in fibrogenic responses (e.g., LGALS3, LOX, MMP1); assay: Fibrogenic response gene expression overall, Example 9
# Description: (§3) Methods: The hepatic tri-culture system, including adult primary human hepatocytes (PHHs), endothelial cells and stromal cells, was cultured with and without primary KCs, at a ratio of 1 KC:4 PHH or 1 KC:2 PHH, in a glucocorticoid-containing or -free media. […] MTX or TGF-β1 or […] (LPS) cause hepatic injury. The injury leads to lipid accumulation, lipotoxicity and cytokines are produced. These activate the KCs and the liver sinusoidal endothelial cells (LSEC). Then stromal activation and gene expressions occur, leading to liver fibrosis.
# (§4) Following exposure to methotrexate (MTX; 0.1 and 1 μM; Sigma-Aldrich, St. Louis, MO) or TGF-β1 (0.1 and 10 ng/ml; Miltenyi Biotec, Gaithersburg, MD) or vehicle (DMSO; 0.1% v/v), the expression of various genes known to have a role in fibrogenic responses (e.g., LGALS3, LOX, MMP1) was determined. MTX and TGF-β1 are known fibrogenic compounds Cell health was assessed by urea production and LDH release in the medium.
# (§5) The experiments were done in a 96-well format according to the details shown below. […] The hepatocytes were from an individual adult lot. The Kupffer cells (KCs) were from an individual adult lot. The seeding density of the Kupffer cells to the hepatocytes was selected to mimic healthy or inflammatory physiological levels (1:4 or 1:2 ratio). The seeding of the KCs occurred on Day 1 of the culture (meaning 24 hours post-hepatocyte plating).
# (§6) All hepatocyte plating was performed using TCPM with Dex (1 μM), as above. Four hours after hepatocyte plating, TCCM was added with and without Dex (half of the cultures with Dex, half without.) The media used were those as described above. The medium exchange process was to do 50% media changes following KC plating up until the compound addition.
# Thawing and plating of the hepatocytes was done according to methods as known in the art. The next day (24 hours) after plating the cells, the KCs were added in TCCM with or without Dex (0.1 μM) at a 1:4 or 1:2 ratio to hepatocytes. […]
# The cell harvest and analytical endpoints were done as follows. […] The treatment samples were analyzed in triplicate. […]
# hTCS with KC [3] = assay: LDH cytotoxicity, Example 10; settings: 10 ng/ml, presence of Kupffer cells, after 96 hours of exposure
# Description: as §1, §2
# LOX (lysyl oxidase) = assay: cells
# Description: as §3, §4, §5, §6
# (§7) Thawing and plating of the hepatocytes was done according to methods as known in the art. The next day (24 hours) after plating the cells, the KCs were added in TCCM with or without Dex (0.1 μM) at a 1:4 or 1:2 ratio to hepatocytes. The next day and subsequent days, 50% volume of medium was changed each day. Starting at day 5 of culture, the compounds tested were added in the 50% medium volume and allowed to go, unchanged, through Day 8 of culture (72 hr treatment); or to 120 hr treatment times. The treatment compounds were methotrexate (0.1 and 1.0 μM) and TGF-β1 (0.1 and 10 ng/ml).
# (§8) The cell harvest and analytical endpoints were done as follows. Phase contrast images were captured each day. The media samples were collected for lactate dehydrogenase (LDH) assay at the end of each treatment period (i.e., 72 or 120 hours of treatment with each compound). The results were used to assess cell health. Cell lysates were harvested for gene expression analysis. 2 wells were combined per sample. The treatment samples were analyzed in triplicate. The following genes that have a role in fibrogenic response were observed. LGALS3 (Galectin3); LOX (lysyl oxidase), MMP1 (matrix Metalloproteinase 1); Housekeeping gene (β-actin). The images in FIGS. 44 and 45 are at 200×.
# LGALS3 (Galectin3) = assay: cells
# Description: as §3, §4, §5, §6, §7, §8
# [4] = test system: MMP1 (matrix Metalloproteinase 1); assay: cells
# Description: as §3, §4, §5, §6, §7, §8
# [5] = test system: co-cultured cells at a 1:2 Kupffer cell to hepatocyte ratio; assay: Cell morphology imaging, Example 10; settings: 24 hours of exposure
# Description: as §1
# hepatic tri-cultures = assay: Cell health (morphology, urea production, LDH release), Example 9; settings: TGF-β1 10 ng/ml, exposure up to 120 hr
# Description: as §4, §8
# hTCS with KC [6] = assay: Urea production, Example 10; settings: 10 ng/ml, between 6 and 96 h
# Description: as §1, §2
# [7] = 72 hours, with Dex, No KC, TGF-β1 0.1 ng/mL
# [8] = 72 hours, with Dex, with KCs, TGF-β1 0.1 ng/mL
# [9] = 72 hours, with Dex, with KCs, TGF-β1 10 ng/mL
# [10] = 72 hours, without Dex, No KC, TGF-β1 0.1 ng/mL
# [11] = 72 hours, without Dex, No KC, TGF-β1 10 ng/mL
# [12] = 72 hours, without Dex, with KCs, TGF-β1 0.1 ng/mL
# [13] = 72 hours, without Dex, with KCs, TGF-β1 10 ng/mL
# [14] = 120 hours, with Dex, No KC, TGF-β1 0.1 ng/mL
# [15] = 120 hours, with Dex, No KC, TGF-β1 10 ng/mL
# [16] = 120 hours, with Dex, with KCs, TGF-β1 0.1 ng/mL
# [17] = 120 hours, with Dex, with KCs, TGF-β1 10 ng/mL
# [18] = 120 hours, without Dex, No KC, TGF-β1 0.1 ng/mL
# [19] = 120 hours, without Dex, No KC, TGF-β1 10 ng/mL
# [20] = 120 hours, without Dex, with KCs, TGF-β1 0.1 ng/mL
# [21] = 120 hours, without Dex, with KCs, TGF-β1 10 ng/mL
substance,measurement,setting,value
"TGF-β1: transforming growth factor-β1, pro-fibrogenic cytokine used as fibrogenic reference compound",gene expression,"[1]; 24 hours of exposure, 1:2 and 1:4 ratios",multiple positive signals for gene expression
same,gene expression compared to the controls,"[1]; 96 hours exposure, almost all genes, ratios 1:4 and 1:2 Kupffer cells to hepatocytes",reduced gene expression
same,culture conditions in which effects on fibrogenic genes were observed,"[2]; DEX / no DEX, with / without KCs","observed in both DEX and no DEX treated groups, with or without KCs"
same,gene expression,[2]; TGF-β1 0.1 ng/ml,did not affect gene expression
same,cytotoxicity based on LDH production,hTCS with KC [3],cytotoxicity of the co-cultured cells was low
same,LOX fold induction Mean,LOX (lysyl oxidase); [7],1.1 fold
same,LOX fold induction Mean,LOX (lysyl oxidase); [8],1.0 fold
same,LOX fold induction Mean,LOX (lysyl oxidase); [9],1.2 fold
same,LOX fold induction Mean,LOX (lysyl oxidase); [10],1.2 fold
same,LOX fold induction Mean,LOX (lysyl oxidase); [11],1.3 fold
same,LOX fold induction Mean,LOX (lysyl oxidase); [12],1.1 fold
same,LOX fold induction Mean,LOX (lysyl oxidase); [13],1.6 fold
same,LOX fold induction Mean,LOX (lysyl oxidase); [14],0.9 fold
same,LOX fold induction Mean,LOX (lysyl oxidase); [15],1.7 fold
same,LOX fold induction Mean,LOX (lysyl oxidase); [16],1.0 fold
same,LOX fold induction Mean,LOX (lysyl oxidase); [17],1.6 fold
same,LOX fold induction Mean,LOX (lysyl oxidase); [18],1.2 fold
same,LOX fold induction Mean,LOX (lysyl oxidase); [19],2.2 fold
same,LOX fold induction Mean,LOX (lysyl oxidase); [20],1.2 fold
same,LOX fold induction Mean,LOX (lysyl oxidase); [21],2.0 fold
same,LGALS3 fold induction Mean,LGALS3 (Galectin3); [7],1.1 fold
same,LGALS3 fold induction Mean,"LGALS3 (Galectin3); 72 hours, with Dex, No KC, TGF-β1 10 ng/mL",0.8 fold
same,LGALS3 fold induction Mean,LGALS3 (Galectin3); [8],0.9 fold
same,LGALS3 fold induction Mean,LGALS3 (Galectin3); [9],0.8 fold
same,LGALS3 fold induction Mean,LGALS3 (Galectin3); [10],1.2 fold
same,LGALS3 fold induction Mean,LGALS3 (Galectin3); [11],0.5 fold
same,LGALS3 fold induction Mean,LGALS3 (Galectin3); [12],1.1 fold
same,LGALS3 fold induction Mean,LGALS3 (Galectin3); [13],0.8 fold
same,LGALS3 fold induction Mean,LGALS3 (Galectin3); [14],1.0 fold
same,LGALS3 fold induction Mean,LGALS3 (Galectin3); [15],0.8 fold
same,LGALS3 fold induction Mean,LGALS3 (Galectin3); [16],0.8 fold
same,LGALS3 fold induction Mean,LGALS3 (Galectin3); [17],0.8 fold
same,LGALS3 fold induction Mean,LGALS3 (Galectin3); [18],1.0 fold
same,LGALS3 fold induction Mean,LGALS3 (Galectin3); [19],0.4 fold
same,LGALS3 fold induction Mean,LGALS3 (Galectin3); [20],1.1 fold
same,LGALS3 fold induction Mean,LGALS3 (Galectin3); [21],0.6 fold
same,MMP1 fold induction Mean,[4]; [7],0.9 fold
same,MMP1 fold induction Mean,[4]; [8],1.0 fold
same,MMP1 fold induction Mean,[4]; [9],1.3 fold
same,MMP1 fold induction Mean,[4]; [10],1.0 fold
same,MMP1 fold induction Mean,[4]; [11],1.2 fold
same,MMP1 fold induction Mean,[4]; [12],1.1 fold
same,MMP1 fold induction Mean,[4]; [13],1.2 fold
same,MMP1 fold induction Mean,[4]; [14],1.2 fold
same,MMP1 fold induction Mean,[4]; [15],1.1 fold
same,MMP1 fold induction Mean,[4]; [16],1.2 fold
same,MMP1 fold induction Mean,[4]; [17],0.1 fold
same,MMP1 fold induction Mean,[4]; [18],1.0 fold
same,MMP1 fold induction Mean,[4]; [19],1.1 fold
same,MMP1 fold induction Mean,[4]; [20],1.1 fold
same,MMP1 fold induction Mean,[4]; [21],1.7 fold
same,MMP1 gene expression,"[4]; TGF-β1 10 ng/ml, presence of KCs",increased MMP1 in a time-dependent manner
same,cell appearance,[5],the cells appear healthy
same,"cell stress (hepatocellular morphology, urea production, LDH release)",hepatic tri-cultures,exhibited signs of cell stress
same,urea production rate compared to vehicle alone,hTCS with KC [6],a decrease in the production rate
